# Source: ChEMBL document CHEMBL5523764, “Discovery of NO Donor-Aurovertin Hybrids as Dual Ferroptosis and Apoptosis Inducers for Treating Triple Negative Breast Cancer” (J Med Chem, 2024)
# Activity calls are given as the source filed them. The calls are words filed in the database; no cut-off is given here.
# Assays:
# [1] = test system: MDA-MB-231; assay: Antiproliferative activity against human MDA-MB-231 cells assessed as reduction in cell viability incubated for 72 hrs by MTT assay; type: functional, cell-based; details: MDA-MB-231, 72 h
# [2] = test system: 4T1; assay: Antiproliferative activity against mouse 4T1 cells assessed as reduction in cell viability incubated for 72 hrs by MTT assay; type: functional, cell-based; details: 4T1, 72 h
# [3] = Cytotoxicity against human MCF-10A cells assessed as reduction in cell viability incubated for 72 hrs by MTT assay; type: toxicity, cell-based
# [4] = test system: MDA-MB-468; assay: Antiproliferative activity against human MDA-MB-468 cells assessed as reduction in cell viability incubated for 72 hrs by MTT assay; type: functional, cell-based; details: MDA-MB-468, 72 h
# [5] = test system: MDA-MB-231; assay: Induction of NO release in human MDA-MB-231 cells assessed NO concentration by Griess reagent based assay; type: functional
# [6] = test system: MDA-MB-231; assay: Induction of apoptosis in human MDA-MB-231 cells assessed as viable cells at 0.25 uM by Annexin V-FITC staining based flow cytometric analysis (reference value: 91.03%); type: functional; details: read-out: Activity
# [7] = test system: MDA-MB-231; assay: Induction of apoptosis in human MDA-MB-231 cells assessed as late apoptotic cells at 0.25 uM by Annexin V-FITC staining based flow cytometric analysis (reference value: 0.02 %); type: functional
# [8] = test system: MDA-MB-231; assay: Induction of apoptosis in human MDA-MB-231 cells assessed as viable cells at 0.5 uM by Annexin V-FITC staining based flow cytometric analysis (reference value: 91.03%); type: functional; details: read-out: Activity
# [9] = test system: MDA-MB-231; assay: Induction of apoptosis in human MDA-MB-231 cells assessed as early apoptotic cells at 0.5 uM by Annexin V-FITC staining based flow cytometric analysis (reference value: 0.17 %); type: functional
# [10] = test system: MDA-MB-231; assay: Induction of apoptosis in human MDA-MB-231 cells assessed as early apoptotic cells at 1 uM by Annexin V-FITC staining based flow cytometric analysis (reference value: 0.17 %); type: functional
# [11] = test system: MDA-MB-231; assay: Induction of apoptosis in human MDA-MB-231 cells assessed as necrotic cells at 1 uM by Annexin V-FITC staining based flow cytometric analysis (reference value: 7.98 %); type: functional
# [12] = test system: MDA-MB-231; assay: Induction of apoptosis in human MDA-MB-231 cells assessed as upregulation of cleaved caspase-3 expression at 0.25 to 1 uM by Western blot analysis; type: functional, cell-based; details: dose 0.25-1 µM
# [13] = test system: MDA-MB-231; assay: Induction of apoptosis in human MDA-MB-231 cells assessed as upregulation of PARP-1 expression at 0.25 to 1 uM by Western blot analysis; type: functional, cell-based; details: dose 0.25-1 µM
# [14] = test system: MDA-MB-231; assay: Downregulation of caspase-8 expression in human MDA-MB-231 cells at 0.25 to 1 uM by Western blot analysis; type: functional, cell-based; details: dose 0.25-1 µM
# [15] = test system: MDA-MB-231; assay: Inhibition of Bcl-xl expression in human MDA-MB-231 cells at 0.25 to 1 uM by Western blot analysis; type: functional, cell-based; details: dose 0.25-1 µM
# [16] = test system: MDA-MB-231; assay: Induction of lipid ROS accumulation in human MDA-MB-231 cells incubated for 24 hrs by BODIPY-C11 probe based flow cytometric analysis; type: functional, cell-based; details: dose 0.25-1 µM
# [17] = test system: Mitochondria; assay: Induction of ROS accumulation in mitochondria of human MDA-MB-231 cells at 0.25 to 1 uM by MitoSOX probe based flow cytometric analysis; type: functional; details: dose 0.25-1 µM
# [18] = test system: MDA-MB-231; assay: Induction of ferroptosis in human MDA-MB-231 cells assessed as decrease in GSH/GSSG ratio incubated for 24 hrs by GSH colorimetric assay; type: functional, cell-based; details: dose 0.25-1 µM
# [19] = test system: MDA-MB-231; assay: Induction of ferroptosis in human MDA-MB-231 cells assessed as decrease in GPX4 expression by Western blot analysis; type: functional, cell-based; details: dose 0.25-1 µM
# [20] = test system: MDA-MB-231; assay: Antiproliferative activity against human MDA-MB-231 cells assessed as inhibition of cell growth at 0.01 to 100 uM incubated for 72 hrs in presence of Fer-1 by MTT assay; type: functional, cell-based; details: dose 0.01-100 µM
# [21] = Toxicity in nude mouse xenografted with human MDA-MB-231 cells assessed as effect on body weight at 10 to 20 mg/kg, ip administered for 30 days; type: organism-based; details: in vivo, 720 h, dose 10-20 mg/kg, time 30 day
# [22] = test system: MDA-MB-231; assay: Induction of ferroptosis in human MDA-MB-231 cells xenografted in nude mouse assessed as reduction in GPX4 level at 10 to 20 mg/kg, ip administered for 30 days by immunohistochemistry analysis; type: functional, organism-based; details: dose 10-20 mg/kg, time 30.0 day
# [23] = test system: MDA-MB-231; assay: Inhibition of cell adhesion in human MDA-MB-231 cells assessed as rounded form appearance of cells at 0.02 to 0.5 uM incubated for 24 hrs by microscopic analysis; type: functional, cell-based; details: dose 0.02-0.5 µM
# [24] = test system: MDA-MB-231; assay: Antimigratory activity in human MDA-MB-231 cells assessed as inhibition of cell migration at 0.02 to 0.5 uM incubated for 24 hrs by scratch assay; type: functional, cell-based; details: dose 0.02-0.5 µM
# [25] = test system: MDA-MB-231; assay: Antiinvasive activity against human MDA-MB-231 cells assessed as reduction in cell invasion measured after 24 hrs by crystal violet staining based transwell invasion assay; type: functional; details: dose 0.02-0.5 µM
# [26] = test system: 4T1; assay: Antiinvasive activity against mouse 4T1 cells assessed as reduction in cell invasion measured after 24 hrs by crystal violet staining based transwell invasion assay; type: functional; details: dose 0.02-0.5 µM
# [27] = test system: MDA-MB-231; assay: Antiinvasive activity against human MDA-MB-231 cells assessed as inhibition of cell invasion at 0.5 uM measured after 24 hrs by crystal violet staining based transwell invasion assay relative to control; type: functional
# [28] = test system: 4T1; assay: Antiinvasive activity against mouse 4T1 cells assessed as inhibition of cell invasion at 0.5 uM measured after 24 hrs by crystal violet staining based transwell invasion assay relative to control; type: functional
# [29] = test system: 4T1; assay: Antimetastatic activity in mouse 4T1 cells implanted in female BALB/c mouse assessed as reduction in number of metastatic nodules in lungs at 10 mg/kg, ip administered once daily for 2 weeks and measured 2 weeks after tumor removal with compound treatment (reference value: 193.7 +/- 6.50); type: functional; details: time 4 weeks
# [30] = test system: 4T1; assay: Upregulation of DUSP1 protein expression in mouse 4T1 cells incubated for 24 hrs by Western blot analysis; type: functional, cell-based; details: dose 0.02-2.5 µM
# [31] = test system: 4T1; assay: Downregulation of phosphorylated JNK protein level at Thr183/185 residues in mouse 4T1 cells at 0.02 to 2.5 uM incubated for 24 hrs by Western blot analysis; type: functional, cell-based; details: dose 0.02-2.5 µM
# [32] = test system: 4T1; assay: Downregulation of phosphorylated AKT protein level at Ser473 residue in mouse 4T1 cells at 0.02 to 2.5 uM incubated for 24 hrs by Western blot analysis; type: functional, cell-based; details: dose 0.02-2.5 µM
# [33] = test system: 4T1; assay: Downregulation of phosphorylated mTOR protein level at Ser2448 residue in mouse 4T1 cells at 0.02 to 2.5 uM incubated for 24 hrs by Western blot analysis; type: functional, cell-based; details: dose 0.02-2.5 µM
# [34] = Acute toxicity in female ICR mouse assessed as effect on behavior at <40 mg/kg, ip measured within 24 hrs; type: organism-based; details: in vivo
# [35] = Acute toxicity in female ICR mouse assessed as spleen pathological abnormalities at 50 mg/kg, ip measured after 2 days; type: organism-based; details: in vivo, 48 h, time 2 day
# [36] = Drug metabolism in nude mouse xenografted with human MDA-MB-231 cells assessed as metabolite formation at 10 to 20 mg/kg, ip administered for 30 days by LC-MS/MS analysis; type: ADME, organism-based; details: in vivo, 720 h, dose 10-20 mg/kg, time 30 day
# [37] = Drug metabolism in nude mouse xenografted with human MDA-MB-231 cells assessed as aurovertin-B release at 10 to 20 mg/kg, ip administered for 30 days by LC-MS/MS analysis; type: ADME, organism-based; details: in vivo, 720 h, dose 10-20 mg/kg, time 30 day
structure (smiles),measurement,setting,value
CC[C@H]1O[C@@]2(C)[C@H](OC(C)=O)[C@@]1(C)O[C@@H](/C=C/C=C/C=C/c1oc(=O)cc(OC)c1C)[C@@H]2OC(=O)CCC(=O)OC/C=C/COc1no[n+]([O-])c1S(=O)(=O)c1ccccc1,IC50,[1],630 nM
same,IC50,[2],870 nM
same,IC50 at 72 h,[3],> 50000 nM
same,IC50,[4],450 nM
same,Activity,[5],4.87 µM
same,viability at 0.25 µM,[6],80.8%
same,Activity,[7],5.82%
same,viability at 0.5 µM,[8],75.3%
same,Activity,[9],16.23%
same,Activity,[10],42.67%
same,Activity,[11],1.42%
same,Activity,[12],Active
same,Activity,[13],Active
same,Activity,[14],Active
same,inhibition,[15],Active
same,Activity,[16],Dose-Dependent Effect
same,Activity,[17],Active
same,Activity,[18],Dose-Dependent Effect
same,Activity,[19],Dose-Dependent Effect
same,Activity,[20],inactive
same,Activity,[21],Non-Toxic
same,Activity,[22],Active
same,inhibition,[23],Active
same,Activity,[24],Active
same,Activity,[25],Dose-Dependent Effect
same,Activity,[26],Dose-Dependent Effect
same,inhibition at 0.5 µM,[27],60.7%
same,inhibition at 0.5 µM,[28],62.8%
same,Activity,[29],64.5
same,Activity,[30],Dose-Dependent Effect
same,Activity,[31],Active
same,Activity,[32],Active
same,Activity,[33],Active
same,Activity,[34],Non-Toxic
same,Activity,[35],Non-Toxic
same,Drug metabolism,[36],Metabolite_Detected
same,Drug metabolism,[37],Metabolite_Detected
